From patent US4048334A, “Active derivatives of methylamino in therapeutic compositions and methods of use” (priority 1974, dated 1977) come the findings set out here.

One data set has as its system catalepsy. The data set is described as follows: Inhibition of catalepsy (crossing of homolateral paws, prochlorperazine). As to conditions: Rattus norvegicus, po, read-out: dose necessary to induce complete inhibition of the catalepsy; prochlorperazine catalepsy. It is filed as in vivo, rat. The method, then:
Additional trials were carried out on rats with Compound 1 and amantadine. These trials involved catalepsy as evidenced by the crossing of the animals' homolateral paws.

In data set [1] the test system is neuroleptic-induced catatonia. The data set is described as follows: Suppression of neuroleptic-induced catatonia (curative treatment, prochlorperazine). The format is in vivo, rat (male, OFA strain). As to conditions: 80 mg/kg oral. The method, then: b. Suppression of neuroleptic-induced catatonia
Batches of 5 male rats of the OFA strain were given 12.5 mg/kg of prochlorperazine by intraperitoneal route. Fifty-five minutes later, an oral dose in aqueous solution of the compound to be studied was administered to all the animals with the exception of the control group. The progress of the catatonia was noted following the same scale as that used in the tests described above.

Data set [2] deals with reserpine-induced catatonia. The data set is described as follows: Inhibition of reserpine-induced catatonia. It is filed as in vivo, rat (male, OFA strain). The procedure: 1. Inhibition of reserpine-induced catatonia
After sufficient doses of reserpine have been administered to the rat, a series of symptoms occur, more particularly ptosis, catatonia and a drop in central temperature. These symptoms are caused by the depletion of the intragranular reserve pool of boigenetic amines at the synaptic terminals.
An oral dose of the compound to be studied in aqueous solution was administered to batches of 10 male rats of the OFA strain weighing about 150 to 200 g. Thirty minutes later a dose of 5 mg/kg of reserpine was given by intraperitoneal route. Three hours after the injection of reserpine, the animals were suspended by the four paws to a horizontally stretched wire fixed at 15 cm from the ground. The catatonic animals were those which maintained the position so given for at least 30 seconds. […] The maximum score was therefore 10 per batch. An identical trial was undertaken with control animals which received reserpine but none of the compounds being studied.

Data set [3] concerns neuroleptic-induced catatonia. In words: Inhibition of neuroleptic-induced catatonia (prochlorperazine). It is filed as in vivo, rat (male, OFA strain). The method, then: 2. Inhibition of neuroleptic-induced catatonia
The blocking of dopaminergic receptors by neuroleptics in the extra-pyramidal system induces catatonia in the rat. Catatonia is differentiated from sedative properties by means of the test used hereabove for reserpine-induced catatonia. The same system of scoring was also employed in the present case.
An oral dose of the compound to be studied in aqueous solution was administered to batches of 10 male rats of the OFA strain weighing about 150 to 200 g. […] Three hours after the injection of this latter compound, catatonia was measured. An identical trial was also carried out with control animals which received prochlorperazine but none of the compounds under study.
The scoring system, used was that given hereabove in Table I.

In data set [4] the test system is tremorine-induced cholinergic effects. The data set is described as follows: Anti-tremorine test (cholinolytic properties in vivo). Also on record: species or system mice (male, OF1 strain); key to peripheral cholinergic effects score (salivation, sweating, weeping): 0: no action; 1: slight action; 2: average action; 3: strong action; 4: very strong action. The procedure:
For this purpose, the following test was performed with a view to determining the anti-tremorine properties of Compound 1.
When injected into mice, tremorine produces peripheral effects i.e. weeping, sweating, salivation and diarrhoea and central effects i.e. tremor and akinesia. Such effects are due to an increase in the amount of intracerebral acetylcholine and serotonine.
Male mice of the OF1 strain weighing about 22 g were divided into batches of 10. […] Thirty minutes later a dose of 10 mg/kg of tremorine was injected by intraperitoneal route and, at different times after this injection, note was taken of the cholinergic effects on each animal in accordance with the following scale: […]

Data set [5] relates to peripheral noradrenergic phenomena (arterial pressure, nictitating membrane). In words: Influence on peripheral noradrenergic phenomena (norepinephrine, arterial pressure and nictitating membrane).
Method: (§1) A cat, anaesthetized with pentobarbital, received a sufficient dose of norepinephrine to increase arterial pressure but not sufficient to cause contraction of the nictitating membrane. Arterial pressure was measured at the carotid immediately after administration of the dose of norepinephrine.
For another data set, the system named is electrocardiogram. The data set is described as follows: Effect on the electrocardiogram. It is filed as in vivo. As to conditions: dog, 5 mg/kg injected.
For data set [6], the system named is reserpine-induced catatonia. In words: Suppression of reserpine-induced catatonia (curative treatment). It is filed as in vivo, rat (male, OFA strain). Also on record: key to catatonia score (maximum 5 per batch): number of animals (of 5) still in catatonia; max 5 per batch. As to conditions: 80 mg/kg oral. The method, then:
a. Suppression of reserpine-induced catatonia
Batches of 5 male rats of the OFA strain, weighing 150 to 200 g were given 5 mg/kg of reserpine by intraperitoneal route. One hour and 45 minutes later, namely when the animals were in a state of catatonia, an aqueous dose of the compound to be studied was administered by oral route to all the animals with the exception of the control group.
The progress of the catatonia was then noted following the scale used in the tests described hereabove.
The maximum score was thus 5 per batch which means that all the animals of the batch were considered to be still in a state of catatonia.

The subject of data set [7] is peripheral noradrenergic phenomena (arterial pressure, nictitating membrane). As to conditions: cat, in vivo.
Method: as §1
Another data set is described as follows: in vivo. As to conditions: mouse, mice, oral, aqueous solution, 10 days observation.
A short description of data set [8]: Toxico-pharmacological index (LD50 / effective dose in catatonia). As to conditions: in vivo.

Take `NC12CC3CC(CC(C3)C1)C2` [Amantadine, 1-amino-adamantane]: the ED100 in the data set on catalepsy is 80 mg/kg. The “catatonia score (5 rats per batch)” value was 5 in data set [1] (1h30 after prochlorperazine); 2 in data set [1] (2h30 after prochlorperazine); 0 in data set [1] (3h30 after prochlorperazine); 1 in [1] (3h after prochlorperazine); 0 in data set [1] (4h after prochlorperazine); 0 in data set [1] (5h after prochlorperazine). Moreover, the “Inhibition of reserpine-induced catatonia” value in data set [2] (100 mg/kg oral, 30 min before reserpine) was 4 (100% inhibition of catatonia in comparison with the controls (namely a score of 0 per studied batch)). Further, the “Inhibition of the neuroleptic-induced catatonia” value in [3] (100 mg/kg oral, 30 min before prochlorperazine) is 4 (100% inhibition of catatonia in comparison with the controls (namely a score of 0 per studied batch)). In addition, in data set [4] (40 mg/kg oral, 20, 30 and 40 minutes after tremorine 10 mg/kg i.p.), the “peripheral cholinergic effects score (salivation, sweating, weeping)” value turned out to be 4. Besides, in data set [4] (40 mg/kg oral, identical to the peripheral score (4)), the “central cholinergic effects (normal and provoked tremor)” value is “Identical results”. Also, the antitremorine properties result in data set [4] (mouse, in vivo) is listed as “devoid of antitremorine properties”. In addition, the “Contractile reaction of the nictitating membrane with electric stimulation” value in data set [5] (cumulative dose 0.1 mg/kg i.v.) turned out to be 20 mm; in data set [5] (cumulative dose 1 mg/kg i.v.), 20 mm; in data set [5] (cumulative dose 3 mg/kg i.v.) it was 16 mm; in [5] (cumulative dose 5 mg/kg i.v.) it was 10 mm; in data set [5] (cumulative dose 10 mg/kg i.v.), 4 mm. Further, the “Contractile reaction of the nictitating membrane without electric stimulation” value in [5] (cumulative dose 0.1 mg/kg i.v.) came out at 0 mm; in data set [5] (cumulative dose 1 mg/kg i.v.) it was 3 mm; in [5] (cumulative dose 3 mg/kg i.v.) it was 4.4 mm; in data set [5] (cumulative dose 5 mg/kg i.v.) it was 5.9 mm; in [5] (cumulative dose 10 mg/kg i.v.) it was 7.5 mm. The “Increase in arterial pressure after injection of norepinephrine” value amounted to 29 mm Hg in data set [5] (cumulative dose 0.1 mg/kg i.v.); 35 mm Hg in data set [5] (cumulative dose 1 mg/kg i.v.); 35 mm Hg in data set [5] (cumulative dose 3 mg/kg i.v.); 59 mm Hg in [5] (cumulative dose 5 mg/kg i.v.); 57 mm Hg in data set [5] (cumulative dose 10 mg/kg i.v.). The ganglioplegic action result in [5] (in vivo) is reported as “exerts a ganglioplegic action”. Besides, the “own effect on contractile reaction of the nictitating membrane” value in data set [5] (in vivo) is “stimulates the contractile reaction of the nictitating membrane”. Moreover, in data set [5] (in vivo), the “potentiation of (peripheral) effects of norepinephrine” value is listed as “potentiates the peripheral adrenergic effects”. The “potentiation of the effects of the electric stimulation” value in data set [5] (in vivo) is “does not potentiate the effects of the electric stimulation”. In the data set with electrocardiogram, the “effect on the electrocardiogram” value is on record as “cardiac arrhythmia due to ventricular extrasystoles”. Further, the “catatonia score (maximum 5 per batch)” value in data set [6] (2h15 after reserpine) is given as 4; in data set [6] (2h30 after reserpine) it was 3; in data set [6] (3h30 after reserpine), 1; in data set [6] (2h after reserpine), 5; in data set [6] (3h after reserpine), 2; in data set [6] (4h after reserpine) it was 0. In addition, the “catatonia score (maximum 5 per batch)” value in [6] (5h after reserpine) is listed as 0. In [7], the “dose from which exogenous norepinephrine is potentiated” value is at least 1 mg/kg. In addition, the “dose from which ganglioplegic properties are shown” value in data set [7] is at least 5 mg/kg.
`CCCC(N)(CC)CCC` [Compound 2, 1-Ethyl-1-n-propyl-n-butylamine]: the “Inhibition of reserpine-induced catatonia” value in data set [2] (5 mg/kg oral, 30 min before reserpine 5 mg/kg i.p.) is reported as 1 (20 to 30% inhibition of catatonia in comparison with the controls (namely a score of 7 to 8 per studied batch)). For the same molecule, in the data set “in vivo”, the 50% lethal dose (LD50) at 240 h was determined as 150 mg/kg. Moreover, the “Inhibition of the neuroleptic-induced catatonia” value in data set [3] (5 mg/kg oral, 30 min before prochlorperazine 12.5 mg/kg i.p.) is 1 (20 to 30% inhibition of catatonia in comparison with the controls (namely a score of 7 to 8 per studied batch)). Besides, the selectivity ratio in data set [8] came out at 25.
